# Measurements published in patent US20260027116A1, “Methods of Treating Chronic Graft-Versus-Host Disease Following Allogeneic Hematopoietic Stem Cell Transplantation” (Kadmon Corporation, LLC, priority 2022, published 2026).
# System: patients with cGVHD
# Conditions: Cohort 1 200 mg QD
smiles,measurement,value
"CC(C)NC(=O)COc1cccc(-c2nc(Nc3ccc4[nH]ncc4c3)c3ccccc3n2)c1 [Belumosudil, 2-{3-[4-(1H-indazol-5-ylamino)-2-quinazolinyl]phenoxy}-N-(propan-2-yl) acetamide]",Abdominal distension: # Events,1
same,Abdominal distension: Affected/At Risk (%),1/17 (5.88%)
same,Abdominal pain upper: # Events,1
same,Abdominal pain upper: Affected/At Risk (%),1/17 (5.88%)
same,Abdominal pain: # Events,2
same,Abdominal pain: Affected/At Risk (%),2/17 (11.76%)
same,Actinic keratosis: # Events,0
same,Actinic keratosis: Affected/At Risk (%),0/17 (0%)
same,Acute kidney injury: # Events,4
same,Acute kidney injury: Affected/At Risk (%),1/17 (5.88%)
same,Acute respiratory distress syndrome: # Events,1
same,Acute respiratory distress syndrome: Affected/At Risk (%),1/17 (5.88%)
same,Adrenal insufficiency: # Events,2
same,Adrenal insufficiency: Affected/At Risk (%),1/17 (5.88%)
same,Alanine aminotransferase increased: # Events,12
same,Alanine aminotransferase increased: Affected/At Risk (%),6/17 (35.29%)
same,"All grade ALT/AST increased, No. (%)",11 (65)
same,"All grade Cough, No. (%)",1 (6)
same,"All grade Diarrhea, No. (%)",6 (35)
same,"All grade Dyspnea, No. (%)",3 (18)
same,"All grade Fatigue, No. (%)",6 (35)
same,"All grade Headache, No. (%)",4 (24)
same,"All grade Hypertension, No. (%)",5 (29)
same,"All grade Nausea, No. (%)",6 (35)
same,"All grade Peripheral edema, No. (%)",3 (18)
same,"All grade URI, No. (%)",9 (53)
same,"All-Cause Mortality, %",(11.76%)
same,"All-Cause Mortality, Affected/At Risk",2/17
same,Anaemia: # Events,14
same,Anaemia: Affected/At Risk (%),5/17 (29.41%)
same,Anal incontinence: # Events,2
same,Anal incontinence: Affected/At Risk (%),1/17 (5.88%)
same,Anxiety: # Events,1
same,Anxiety: Affected/At Risk (%),1/17 (5.88%)
same,"Any AE, No. (%)",17 (100)
same,Arthralgia: # Events,1
same,Arthralgia: Affected/At Risk (%),1/17 (5.88%)
same,Aspartate aminotransferase increased: # Events,8
same,Aspartate aminotransferase increased: Affected/At Risk (%),5/17 (29.41%)
same,Asthenia: # Events,0
same,Asthenia: Affected/At Risk (%),0/17 (0%)
same,Atelectasis: # Events,1
same,Atelectasis: Affected/At Risk (%),1/17 (5.88%)
same,Back pain: # Events,0
same,Back pain: Affected/At Risk (%),0/17 (0%)
same,Balance disorder: # Events,0
same,Balance disorder: Affected/At Risk (%),0/17 (0%)
same,Basal cell carcinoma: # Events,0
same,Basal cell carcinoma: Affected/At Risk (%),0/17 (0%)
same,Benign prostatic hyperplasia: # Events,1
same,Benign prostatic hyperplasia: Affected/At Risk (%),1/17 (5.88%)
same,Blepharitis: # Events,1
same,Blepharitis: Affected/At Risk (%),1/17 (5.88%)
same,Blister: # Events,0
same,Blister: Affected/At Risk (%),0/17 (0%)
same,Blood alkaline phosphatase increased: # Events,6
same,Blood alkaline phosphatase increased: Affected/At Risk (%),4/17 (23.53%)
same,Blood chloride decreased: # Events,0
same,Blood chloride decreased: Affected/At Risk (%),0/17 (0%)
same,Blood cholesterol increased: # Events,2
same,Blood cholesterol increased: Affected/At Risk (%),1/17 (5.88%)
same,Blood creatine increased: # Events,0
same,Blood creatine increased: Affected/At Risk (%),0/17 (0%)
same,Blood creatine phosphokinase increased: # Events,1
same,Blood creatine phosphokinase increased: Affected/At Risk (%),1/17 (5.88%)
same,Blood creatinine increased: # Events,1
same,Blood creatinine increased: Affected/At Risk (%),1/17 (5.88%)
same,Blood loss anaemia: # Events,1
same,Blood loss anaemia: Affected/At Risk (%),1/17 (5.88%)
same,Bronchial secretion retention: # Events,0
same,Bronchial secretion retention: Affected/At Risk (%),0/17 (0%)
same,Bronchitis: # Events,1
same,Bronchitis: Affected/At Risk (%),1/17 (5.88%)
same,Bronchoscopy: # Events,1
same,Bronchoscopy: Affected/At Risk (%),1/17 (5.88%)
same,Catheter site haemorrhage: # Events,1
same,Catheter site haemorrhage: Affected/At Risk (%),1/17 (5.88%)
same,Chills: # Events,1
same,Chills: Affected/At Risk (%),1/17 (5.88%)
same,Chronic kidney disease: # Events,1
same,Chronic kidney disease: Affected/At Risk (%),1/17 (5.88%)
same,Conjunctival haemorrhage: # Events,0
same,Conjunctival haemorrhage: Affected/At Risk (%),0/17 (0%)
same,Conjunctivitis: # Events,0
same,Conjunctivitis: Affected/At Risk (%),0/17 (0%)
same,Constipation: # Events,1
same,Constipation: Affected/At Risk (%),1/17 (5.88%)
same,Contrast media allergy: # Events,0
same,Contrast media allergy: Affected/At Risk (%),0/17 (0%)
same,Contusion: # Events,2
same,Contusion: Affected/At Risk (%),2/17 (11.76%)
same,Corneal abrasion: # Events,1
same,Corneal abrasion: Affected/At Risk (%),1/17 (5.88%)
same,Corneal infection: # Events,0
same,Corneal infection: Affected/At Risk (%),0/17 (0%)
same,Cough: # Events,1
same,Cough: Affected/At Risk (%),1/17 (5.88%)
same,"Death, No. (%)",0
same,Decreased appetite: # Events,4
same,Decreased appetite: Affected/At Risk (%),2/17 (11.76%)
same,Dehydration: # Events,2
same,Dehydration: Affected/At Risk (%),2/17 (11.76%)
same,Depression: # Events,0
same,Depression: Affected/At Risk (%),0/17 (0%)
same,Diarrhoea: # Events,9
same,Diarrhoea: Affected/At Risk (%),6/17 (35.29%)
same,Dizziness: # Events,0
same,Dizziness: Affected/At Risk (%),0/17 (0%)
same,Drug eruption: # Events,0
same,Drug eruption: Affected/At Risk (%),0/17 (0%)
same,"Drug-related AE, No. (%)",8 (47)
same,"Drug-related SAE, No. (%)",0
same,Dry eye: # Events,3
same,Dry eye: Affected/At Risk (%),2/17 (11.76%)
same,Dry skin: # Events,1
same,Dry skin: Affected/At Risk (%),1/17 (5.88%)
same,Dyspepsia: # Events,0
same,Dyspepsia: Affected/At Risk (%),0/17 (0%)
same,Dysphagia: # Events,1
same,Dysphagia: Affected/At Risk (%),1/17 (5.88%)
same,Dyspnoea exertional: # Events,1
same,Dyspnoea exertional: Affected/At Risk (%),1/17 (5.88%)
same,Dyspnoea: # Events,2
same,Dyspnoea: Affected/At Risk (%),2/17 (11.76%)
same,Embolism: # Events,1
same,Embolism: Affected/At Risk (%),1/17 (5.88%)
same,Enamel anomaly: # Events,0
same,Enamel anomaly: Affected/At Risk (%),0/17 (0%)
same,Epidural lipomatosis: # Events,1
same,Epidural lipomatosis: Affected/At Risk (%),1/17 (5.88%)
same,Epstein-Barr virus infection: # Events,1
same,Epstein-Barr virus infection: Affected/At Risk (%),1/17 (5.88%)
same,Erectile dysfunction: # Events,4
same,Erectile dysfunction: Affected/At Risk (%),2/17 (11.76%)
same,Eye irritation: # Events,1
same,Eye irritation: Affected/At Risk (%),1/17 (5.88%)
same,Eye pain: # Events,0
same,Eye pain: Affected/At Risk (%),0/17 (0%)
same,Eye pruritus: # Events,0
same,Eye pruritus: Affected/At Risk (%),0/17 (0%)
same,Fall: # Events,2
same,Fall: Affected/At Risk (%),2/17 (11.76%)
same,Fatigue: # Events,7
same,Fatigue: Affected/At Risk (%),6/17 (35.29%)
same,Flatulence: # Events,0
same,Flatulence: Affected/At Risk (%),0/17 (0%)
same,Flushing: # Events,0
same,Flushing: Affected/At Risk (%),0/17 (0%)
same,Fungal infection: # Events,1
same,Fungal infection: Affected/At Risk (%),1/17 (5.88%)
same,Gamma-glutamyltransferase increased: # Events,9
same,Gamma-glutamyltransferase increased: Affected/At Risk (%),4/17 (23.53%)
same,Gastric ulcer: # Events,0
same,Gastric ulcer: Affected/At Risk (%),0/17 (0%)
same,Gastrooesophageal reflux disease: # Events,2
same,Gastrooesophageal reflux disease: Affected/At Risk (%),2/17 (11.76%)
same,Generalised oedema: # Events,1
same,Generalised oedema: Affected/At Risk (%),1/17 (5.88%)
same,Genital infection fungal: # Events,0
same,Genital infection fungal: Affected/At Risk (%),0/17 (0%)
same,Glaucoma: # Events,0
same,Glucose urine present: # Events,3
same,Glucose urine present: Affected/At Risk (%),2/17 (11.76%)
same,"Grade ≥3 AE, No. (%)",9 (53)
same,"Grade ≥3 ALT/AST increased, No. (%)",2 (12)
same,"Grade ≥3 Anemia, No. (%)",2 (12)
same,"Grade ≥3 Dyspnea, No. (%)",1 (6)
same,"Grade ≥3 Hyperglycemia, No. (%)",2 (12)
same,"Grade ≥3 Hypoxia, No. (%)",1 (6)
